Measurements reported in US20240125729A1, “METHODS AND RELATED ASPECTS OF DETECTING TARGET MOLECULES USING CYCLIC VOLTAMMETRY” (THE JOHNS HOPKINS UNIVERSITY, priority 2021, published 2024).
Where “and” joins values, the source holds several entries; their conditions need not be identical. Identical values can stand only once. Each block holds one compound with its values, some of them ahead of it.

What was measured:
procaine-binding aptamer [1] = assay: Square wave voltammetry calibration of procaine-binding E-AB sensors; settings: 100 Hz, amplitude 50 mV, step 1 mV, read-out: KD (dissociation constant) by square-wave voltammetry
Experimental: FIG. 12 is a plot showing a calibration curve for procaine-binding E-AB sensors obtained by square wave voltammetry. The Hill's coefficient and dissociation constant obtained were 0.97±0.05 and 1.9±0.2 mM, respectively. Each point represents the average of 5·measurements at a frequency of 100 Hz, amplitude of 50 mV, and step potential of 1 mV.
These sequences were purchased modified on the 5′end with hexanethiol and on the 3′end with MB, and double HPLC purified. To prepare aptamer solutions for electrode modification, 1 μL of 100 μM of the modified sequences was incubated with 2 μL of 5 mM TCEP solution in water for 1 hour to reduce the disulfide bonds. Then, we diluted the aptamer solutions in 1 mM 6-mercaptohexanol aqueous solution to a final aptamer concentration of 500 nM.
Electrochemical measurements. Gold working (PN 002314, d=1.6 mm) and coiled platinum wire counter electrodes (PN 012961) were purchased from ALS Inc. (Japan). Ag/AgCl (1M KCl) reference electrodes (PN CHI111) were purchased from CH Instruments (USA). […] Cyclic voltammograms were recorded at different scan rates in the potential window from −0.5 V to +0.1 V vs Ag/AgCl (1M KCl). Square-wave voltammograms were recorded from 0 V to −0.5 V vs Ag/AgCl (1M KCl) with an amplitude of 50 mV, a step size of 1 mV, and at 300 Hz. […]
(§1) Electrode modification. […] After rinsing with water, electrodes were ready for use. […]

procaine-binding aptamer [2] = assay: Cyclic voltammetry ΔEP interrogation of procaine-detecting E-AB sensors in undiluted serum
Experimental: (§2) ΔEP-based interrogation of E-AB sensors supports molecular measurements in complex media such as undiluted serum. Moreover, the approach can be used to interrogate E-AB sensors detecting different molecular targets. […] Furthermore, the relative change in ΔEP at 10 mM tobramycin was 30% less than the gain seen in phosphate-buffered saline. Both of these effects were previously reported for serum tobramycin E-AB measurements performed by chronoamperometry, confirming that ΔEP is not more prone to fouling than, for example, chronoamperometric current decay lifetimes. […] Last, procaine-detecting E-AB sensors presented the largest change in ΔEP, corresponding to a relative decrease of ˜80% at saturating procaine concentrations (FIG. 11C). Based on our calibration curve, the procaine-binding aptamer has a KD of ˜500 μM, slightly better than the affinity obtained by, for example, square-wave voltammetry (KD˜2 mM, FIG. 12). […]
(§3) Electrochemical measurements. […] Cyclic voltammograms were recorded at different scan rates in the potential window from −0.5 V to +0.1 V vs Ag/AgCl (1M KCl). Square-wave voltammograms were recorded from 0 V to −0.5 V vs Ag/AgCl (1M KCl) with an amplitude of 50 mV, a step size of 1 mV, and at 300 Hz. […]
as §1

[3] = system: tobramycin-binding aptamer; assay: Cyclic voltammetry (ΔEP / IP) interrogation of tobramycin-detecting E-AB sensors
From the text: The magnitude of ΔEP in cyclic voltammetry can be used to interrogate changes in the apparent electron transfer kinetics of E-AB sensors. ΔEP is affected by a mass transfer (diffusional) component related to the conformation switching behavior of aptamers; thus, measured changes in ΔEP reflect target-binding induced changes in aptamer conformation. We first illustrate this effect employing tobramycin-detecting E-AB sensors (FIG. 5), which have been extensively validated in the literature and represent a well-understood model system. In these E-AB sensors, interrogation by cyclic voltammetry in the absence of target and at voltage scanning rates of ˜1-10 V·s^−1 results in voltammograms with a ΔEP ˜100 mV (FIG. 5A). However, the addition of a saturating concentration of tobramycin (10 mM) causes a significant increase in apparent electron transfer kinetics with a concomitant decrease in ΔEP to ˜30 mV (FIG. 5A, B). Similar measurements at varying tobramycin concentrations can be translated into dose-response curves (FIG. 5C). The dissociation constant estimated by extrapolating the mid-point of these dose-response curves to the x-axis, KD˜80 μM, is similar to previously reported KD measurements based on chronoamperometric and differential pulse measurements.
As with all E-AB interrogation methods, there is a tradeoff between the maximum signal gain observed by ΔEP and the apparent dissociation constant of the sensors. To illustrate this, we measured dose-response curves as shown in FIG. 5C at scanning rates ranging from 0.5 to 100 V·s^−1 (FIG. 6). Then, we determined the apparent dissociation constant at each scanning rate by performing a non-linear regression of the data sets using the Hill isotherm. […] Moreover, the shape of the voltammograms was distorted at fast scanning rates, preventing the accurate determination of ΔEP (FIG. 8). Thus, taking into consideration the results presented in FIGS. 7A and B, we determined that the best CV interrogation rate for tobramycin-detecting E-AB sensor was 5 V·s^−1.
E-AB interrogation via ΔEP achieves larger signal gains relative to interrogation based on CV peak heights. To illustrate this point, we measured dose-response curves at the optimal voltage scanning rate of 5 V·s^−1 and compared the response based on voltammogram peak currents, IP, at varying tobramycin concentrations relative to the proposed ΔEP-based method (FIG. 7C). To achieve a direct comparison between approaches, we calculated the relative change in signal at each concentration with respect to the signal measured in the absence of target (this is common practice in the field). By graphing IP vs concentration, we observed a ‘signal-on’ type of response, with IP increasing to a plateau of 20% relative signal change at saturation. Using ΔEP, in contrast, we observed a ‘signal-off’ type of response, with ΔEP decreasing by 80% relative signal change at saturation. […] On the other hand, ΔEP provides a signal-off response that is less desirable than the signal-on response achieved by monitoring IP. Typically, the use of signal-off sensing is sub-optimal for continuous monitoring in complex fluids, as matrix effects can induce signal decreases unrelated to fluctuations in target concentration that can be confounding during sensing.
ΔEP-based interrogation of E-AB sensors supports molecular measurements in complex media such as undiluted serum. Moreover, the approach can be used to interrogate E-AB sensors detecting different molecular targets. […] Furthermore, the relative change in ΔEP at 10 mM tobramycin was 30% less than the gain seen in phosphate-buffered saline. Both of these effects were previously reported for serum tobramycin E-AB measurements performed by chronoamperometry, confirming that ΔEP is not more prone to fouling than, for example, chronoamperometric current decay lifetimes. […]

[4] = target: vancomycin-binding aptamer; assay: Cyclic voltammetry ΔEP interrogation of vancomycin-detecting E-AB sensors in undiluted serum
Experimental: as §2, §3, §1

[5] = CV 5 V·s^−1, phosphate-buffered saline, relative to no target

Kd (procaine-binding aptamer [1]): 1.9 mM and ~2 mM | Kd (procaine-binding aptamer [2]; cyclic voltammetry, read-out: KD from calibration curve (ΔEP)): ~500 µM | relative decrease in ΔEP at saturating concentration (procaine-binding aptamer [2]; saturating procaine): ~80%
SMILES: CCN(CC)CCOC(=O)c1ccc(N)cc1 [procaine]

relative change in ΔEP in undiluted serum, less than the gain seen in phosphate-buffered saline ([3]; 10 mM tobramycin, undiluted serum vs phosphate-buffered saline): 30% | IP (peak current) increase, relative signal change at saturation (signal-on) [3, 5]: 20% | ΔEP decrease, relative signal change at saturation (signal-off) [3, 5]: 80% | Kd ([3]; CV at 5 V·s^−1, phosphate-buffered saline, Hill fit, 5 electrodes, read-out: KD (dissociation constant from ΔEP dose-response curve)): 80 ± 7 µM | ΔEP (peak-to-peak separation) after target addition ([3]; saturating tobramycin 10 mM, without target ~100 mV, scanning rates ~1-10 V·s^−1): ~30 mV | affinity in undiluted serum relative to phosphate-buffered saline ([3]; undiluted serum, ΔEP-based interrogation): significant decrease in affinity
SMILES: NC[C@H]1O[C@H](O[C@H]2[C@H](O)[C@@H](O[C@H]3O[C@H](CO)[C@@H](O)[C@H](N)[C@H]3O)[C@H](N)C[C@@H]2N)[C@H](N)C[C@@H]1O [tobramycin]

SMILES: CN[C@H](CC(C)C)C(=O)N[C@H]1C(=O)N[C@@H](CC(N)=O)C(=O)N[C@H]2C(=O)N[C@H]3C(=O)N[C@H](C(=O)N[C@H](C(=O)O)c4cc(O)cc(O)c4-c4cc3ccc4O)[C@H](O)c3ccc(c(Cl)c3)Oc3cc2cc(c3O[C@@H]2O[C@H](CO)[C@@H](O)[C@H](O)[C@H]2O[C@H]2C[C@](C)(N)[C@H](O)[C@H](C)O2)Oc2ccc(cc2Cl)[C@H]1O [vancomycin]
Kd ([4]; read-out: KD from serum calibration curve (ΔEP)): ~60 µM | total relative change in ΔEP at saturating concentration ([4]; saturating vancomycin): ~50%
